Target: T1, RIPK2 enzyme (Homo sapiens, UniProt O43353)
T1 construct: purchased Carna 09-128
Assay: RIPK2 inhibition (ADP-Glo Kinase Assay)
Type: biochemical
Details: RIPK2 5 nM, ATP 150 μM, MBP substrate, read-out: RIPK2 IC50
Protocol: RIPK2 inhibition was measured as follows:
The V9102 ADP-Glo Kinase Assay (including ultrapure ATP, 10 mM) was purchased from Promega. Native swine MBP was used as the substrate for the reaction and was purchased from SignalChem Biotech (catalogue number M42-51N). Assay buffer used for the assay consisted of the following components: MgCl2 (final concentration of 10 mM), Brij-35 (0.01%), DTT (final concentration of 2 mM), BSA (0.05%), EGTA (final concentration of 1 mM), and HEPE (pH 7.5 at final concentration of 50 mM).
Method: In a 384 well plate, 10 nL of test compound was dispensed using Echo550 and mixed with RIPK2 enzyme (final concentration of 5 nM) in assay buffer for 30 minutes at room temperature. […] Then ADP-Glo reagent was added and incubated for 60 min at room temperature. Last, Kinase Detection Reagent was added to the mixture and incubated for 60 min. The resulting luminescent signal was measured with an Envision reader to determine the amount of ADP produced. All plates contained vehicle controls (10 nL DMSO only) as a reference for the high control (0% kinase inhibition), and wells with no RIPK2 enzyme as reference for low control (100% kinase inhibition). Data were analyzed to determine the percent inhibition of ADP production in the presence of test compound using both low and high controls.

T1 sequence (O43353 1-299 limits assumed): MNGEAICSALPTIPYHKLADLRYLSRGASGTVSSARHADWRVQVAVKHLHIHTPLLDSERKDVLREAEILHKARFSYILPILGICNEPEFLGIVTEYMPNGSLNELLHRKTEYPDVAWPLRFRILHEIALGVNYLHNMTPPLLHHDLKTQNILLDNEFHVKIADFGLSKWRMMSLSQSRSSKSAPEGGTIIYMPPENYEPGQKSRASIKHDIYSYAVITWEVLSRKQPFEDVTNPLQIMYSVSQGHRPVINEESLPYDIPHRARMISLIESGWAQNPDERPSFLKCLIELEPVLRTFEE

Q: Which IC50 does the source give for `Cc1c(Oc2ccnc3ccc(C(=O)N4CCC(N)C4)cc23)ccc(CC(=O)Nc2cnn(C(C)(C)C)c2)c1F` (single isomer, unassigned) [Compound 354, 2-(4-((6-(3-amino-pyrrolidine-1-carbonyl)quinolin-4-yl)oxy)-2-fluoro-3-methyl-phenyl)-N-(1-(tert-butyl)-1H-pyrazol-4-yl)acetamide] here?
A: The IC50 was under 2.5 nM.

Q: Which IC50 does the source give for `Cc1cc(CC(=O)Nc2cnn(C(C)(C)C)c2)c(F)cc1Oc1ccnc2ccc(C(=O)N3CCC(O)C3)cc12` (single isomer, unassigned) [Compound 375, N-(1-(tert-butyl)-1H-pyrazol-4-yl)-2-(2-fluoro-4-((6-(3-hydroxy-pyrrolidine-1-carbonyl)quinolin-4-yl)oxy)-5-methyl-phenyl) acetamide] here?
A: Its IC50 is under 2.5 nM.

Q: Which IC50 does the source give for `Cc1cc(CC(=O)Nc2cnn(C(C)(C)C)c2)c(F)cc1Oc1ccnc2ccc(C(=O)N3CCC(O)C3)cc12` (single isomer, unassigned) [Compound 376, N-(1-(tert-butyl)-1H-pyrazol-4-yl)-2-(2-fluoro-4-((6-(3-hydroxy-pyrrolidine-1-carbonyl)quinolin-4-yl)oxy)-5-methylphenyl) acetamide] here?
A: The IC50 was under 2.5 nM.

Q: Which IC50 does the source give for `Cc1cc(CC(=O)Nc2cnn(C(C)(C)C)c2)c(F)cc1Oc1ccnc2ccc(C(=O)NC3CC(C#N)C3)cc12` (single isomer, unassigned) [Compound 395, 4-(4-(2-((1-(tert-butyl)-1H-pyrazol-4-yl)amino)-2-oxoethyl)-5-fluoro-2-methyl-phenoxy)-N-(-3-cyano-cyclobutyl) quinoline-6-carboxamide] here?
A: Its IC50 is under 2.5 nM.

Q: Which IC50 does the source give for `Cc1cc(CC(=O)Nc2cnn(C(C)(C)C)c2)c(F)cc1Oc1ccnc2ccc(C(=O)NC3CC(C#N)C3)cc12` (single isomer, unassigned) [Compound 396, 4-(4-(2-((1-(tert-butyl)-1H-pyrazol-4-yl)amino)-2-oxoethyl)-5-fluoro-2-methyl-phenoxy)-N-(-3-cyano-cyclobutyl) quinoline-6-carboxamide] here?
A: The IC50 was under 2.5 nM.

Q: Which IC50 does the source give for `Cc1c(Oc2ccnc3ccc(C(=O)NC4CC(C#N)C4)cc23)ccc(CC(=O)Nc2cnn(C(C)(C)C)c2)c1F` (single isomer, unassigned) [Compound 403, 4-(4-(2-((1-(tert-butyl)-1H-pyrazol-4-yl)amino)-2-oxoethyl)-3-fluoro-2-methyl-phenoxy)-N-(-3-cyano-cyclobutyl) quinoline-6-carboxamide] here?
A: Its IC50 is under 2.5 nM.

Q: Which IC50 does the source give for `Cc1c(Oc2ccnc3ccc(C(=O)NC4CC(C#N)C4)cc23)ccc(CC(=O)Nc2cnn(C(C)(C)C)c2)c1F` (single isomer, unassigned) [Compound 404, 4-(4-(2-((1-(tert-butyl)-1H-pyrazol-4-yl)amino)-2-oxoethyl)-3-fluoro-2-methyl-phenoxy)-N-(-3-cyano-cyclobutyl) quinoline-6-carboxamide] here?
A: The IC50 was under 2.5 nM.

Q: How did the IC50 turn out when `COc1ccc2nccc(Oc3ccc(CC(=O)Nc4cnn(C(C)(C)C)c4)c(F)c3)c2c1` [Compound 1, N-(1-(tert-butyl)-1H-pyrazol-4-yl)-2-(2-fluoro-4-((6-methoxy-quinolin-4-yl)oxy)phenyl) acetamide] was run?
A: The IC50 was 5.6 nM.

Q: `COc1cc2ncnc(Oc3ccc(CC(=O)Nc4cnn(C(C)(C)C)c4)c(F)c3)c2cc1S(=O)(=O)C(C)(C)C` [Compound 2, N-(1-(tert-butyl)-1H-pyrazol-4-yl)-2-(4-((6-(tert-butylsulfonyl)-7-methoxyquinazolin-4-yl)oxy)-2-fluorophenyl)acetamide] was tested. Which IC50 did it give?
A: The IC50 was under 2.5 nM.

Q: `COc1cc2nccc(Oc3ccc(CC(=O)Nc4cnn(C(C)(C)C)c4)c(F)c3)c2cc1S(=O)(=O)C(C)(C)C` [Compound 3, N-(1-(tert-butyl)-1H-pyrazol-4-yl)-2-(4-((6-(tert-butylsulfonyl)-7-methoxyquinolin-4-yl)oxy)-2-fluorophenyl)acetamide] was tested. Which IC50 did it give?
A: Its IC50 is under 2.5 nM.

Q: Which IC50 does the source give for `CC(C)(C)n1cc(NC(=O)Cc2ncc(Oc3ccnc4ccc(F)cc34)cn2)cn1` [Compound 4] here?
A: The IC50 was 61.9 nM.

Q: `CC(C)(C)n1cc(NC(=O)Cc2ncc(Oc3ncnc4ccc(F)cc34)cc2F)cn1` [Compound 5, N-(1-(tert-butyl)-1H-pyrazol-4-yl)-2-(3-fluoro-5-((6-fluoroquinazolin-4-yl)oxy)pyridin-2-yl)acetamide] was tested. Which IC50 did it give?
A: Its IC50 is 99.7 nM.

Q: With `COc1ccc2nccc(Oc3cnc(CC(=O)Nc4cnn(C(C)(C)C)c4)c(F)c3)c2c1` [Compound 6, N-(1-(tert-butyl)-1H-pyrazol-4-yl)-2-(3-fluoro-5-((6-methoxyquinolin-4-yl)oxy)pyridin-2-yl)acetamide] as the compound, how does the IC50 read?
A: The IC50 was 9 nM.

Q: How did the IC50 turn out when `CC(C)(C)n1cc(NC(=O)Cc2ncc(Oc3ncnc4ccc(Cl)cc34)cc2F)cn1` [Compound 7, N-(1-(tert-butyl)-1H-pyrazol-4-yl)-2-(5-((6-chloroquinazolin-4-yl)oxy)-3-fluoro-pyridin-2-yl)acetamide] was run?
A: The IC50 was 24 nM.

Q: `COc1ccc2ncnc(Oc3cnc(CC(=O)Nc4cnn(C(C)(C)C)c4)c(F)c3)c2c1` [Compound 9, N-(1-(tert-butyl)-1H-pyrazol-4-yl)-2-(3-fluoro-5-((6-methoxyquinazolin-4-yl)oxy)pyridin-2-yl)acetamide] was tested. Which IC50 did it give?
A: Its IC50 is 21.8 nM.

Q: `COc1ccc2ncnc(Oc3cnc(CC(=O)Nc4cnn(C(C)(C)C)c4)c(Cl)c3)c2c1` [Compound 10, N-(1-(tert-butyl)-1H-pyrazol-4-yl)-2-(3-chloro-5-((6-methoxyquinazolin-4-yl)oxy)pyridin-2-yl)acetamide] was tested. Which IC50 did it give?
A: Its IC50 is 43.5 nM.

Q: With `COc1ccc2ncnc(Oc3cnc(CC(=O)Nc4cc(C(C)(C)C)[nH]n4)c(F)c3)c2c1` [Compound 12, N-(5-(tert-butyl)-1H-pyrazol-3-yl)-2-(3-fluoro-5-((6-methoxyquinazolin-4-yl)oxy)pyridin-2-yl)acetamide] as the compound, how does the IC50 read?
A: Its IC50 is 11.6 nM.

Q: For `COc1ccc2nccc(Oc3cnc(CC(=O)Nc4cc(C(C)(C)C)[nH]n4)c(F)c3)c2c1` [Compound 13, N-(5-(tert-butyl)-1H-pyrazol-3-yl)-2-(3-fluoro-5-((6-methoxyquinolin-4-yl)oxy)pyridin-2-yl)acetamide], which IC50 is on record?
A: The IC50 was 3.5 nM.

Q: `CC(C)(C)n1cc(NC(=O)Cc2ccc(Oc3ncnc4ccc(N5CCOCC5)cc34)cc2F)cn1` [Compound 14, N-(1-(tert-butyl)-1H-pyrazol-4-yl)-2-(2-fluoro-4-((6-morpholinoquinazolin-4-yl)oxy)phenyl)acetamide] was tested. Which IC50 did it give?
A: The IC50 was 23.7 nM.

Q: For `COc1ccc2ncnc(Oc3ccc(CC(=O)Nc4cc(C(C)(C)CO)[nH]n4)c(F)c3)c2c1` [Compound 15, 2-(2-fluoro-4-((6-methoxy-quinazolin-4-yl)oxy)phenyl)-N-(5-(1-hydroxy-2-methylpropan-2-yl)-1H-pyrazol-3-yl)acetamide], which IC50 is on record?
A: Its IC50 is 34.9 nM.

Q: With `CC(C)(C)n1cc(NC(=O)Cc2ccc(Oc3ncnc4ccc(OCCO)cc34)cc2F)cn1` [Compound 16, N-(1-(tert-butyl)-1H-pyrazol-4-yl)-2-(2-fluoro-4-((6-(2-hydroxyethoxy)quinazolin-4-yl)oxy)phenyl)acetamide] as the compound, how does the IC50 read?
A: Its IC50 is 9.3 nM.

Q: Which IC50 does the source give for `CC(C)(C)n1cc(NC(=O)Cc2ccc(Oc3ncnc4ccc(OCCN5CCCC5)cc34)cc2F)cn1` [Compound 17, N-(1-(tert-butyl)-1H-pyrazol-4-yl)-2-(2-fluoro-4-((6-(2-(pyrrolidin-1-yl)ethoxy)quinazolin-4-yl)oxy)phenyl) acetamide] here?
A: Its IC50 is 27.4 nM.

Q: How did the IC50 turn out when `CN1CC(Oc2ccc3ncnc(Oc4ccc(CC(=O)Nc5cnn(C(C)(C)C)c5)c(F)c4)c3c2)C1` [Compound 18, N-(1-(tert-butyl)-1H-pyrazol-4-yl)-2-(2-fluoro-4-((6-((1-methyl-azetidin-3-yl)oxy)quinazolin-4-yl)oxy)phenyl) acetamide] was run?
A: The IC50 was 7.9 nM.

Q: Which IC50 does the source give for `CN1CCC(Oc2ccc3ncnc(Oc4ccc(CC(=O)Nc5cnn(C(C)(C)C)c5)c(F)c4)c3c2)CC1` [Compound 19, N-(1-(tert-butyl)-1H-pyrazol-4-yl)-2-(2-fluoro-4-((6-((1-methyl-piperidin-4-yl)oxy)quinazolin-4-yl)oxy)phenyl) acetamide] here?
A: The IC50 was 4.2 nM.

Q: For `CC(C)(C)c1ccnc(NC(=O)Cc2ccc(Oc3ncnc4ccc(F)cc34)cc2F)c1` [Compound 21, N-(4-(tert-butyl)pyridin-2-yl)-2-(2-fluoro-4-((6-fluoroquinazolin-4-yl)oxy)phenyl) acetamide], which IC50 is on record?
A: Its IC50 is 36.6 nM.

Q: For `CC(C)c1ccnc(NC(=O)Cc2ccc(Oc3ncnc4ccc(F)cc34)cc2F)c1` [Compound 22, 2-(2-fluoro-4-((6-fluoroquinazolin-4-yl)oxy)phenyl)-N-(4-isopropylpyridin-2-yl)acetamide], which IC50 is on record?
A: The IC50 was 23.9 nM.

Q: How did the IC50 turn out when `COc1ccc2ncnc(Oc3ccc(CC(=O)Nc4noc(C(C)(C)C)n4)c(F)c3)c2c1` [Compound 23, N-(5-(tert-butyl)-1,2,4-oxadiazol-3-yl)-2-(2-fluoro-4-((6-methoxy-quinazolin-4-yl)oxy)phenyl) acetamide] was run?
A: Its IC50 is 14.4 nM.

Q: How did the IC50 turn out when `CC(C)(C)n1cc(NC(=O)Cc2ccc(Oc3ncnc4ccc(C(N)=O)cc34)cc2F)cn1` [Compound 24, 4-(4-(2-((1-(tert-butyl)-1H-pyrazol-4-yl)amino)-2-oxoethyl)-3-fluoro-phenoxy) quinazoline-6-carboxamide] was run?
A: The IC50 was 7.4 nM.

Q: With `CNC(=O)c1ccc2ncnc(Oc3ccc(CC(=O)Nc4cnn(C(C)(C)C)c4)c(F)c3)c2c1` [Compound 25, 4-(4-(2-((1-(tert-butyl)-1H-pyrazol-4-yl)amino)-2-oxoethyl)-3-fluoro-phenoxy)-N-methyl-quinazoline-6-carboxamide] as the compound, how does the IC50 read?
A: The IC50 was 4.3 nM.

— patent publication US12624018B1, “Inhibitors of RIPK2 and medical uses thereof” (Odyssey Therapeutics, Inc., priority 2022, dated 2026)
